Experimental data reported in publication PMC6325200, “Effects of Microplate Type and Broth Additives on Microdilution MIC Susceptibility Assays” (Antimicrobial Agents and Chemotherapy, 2018).
In brackets after ≈: the same amount, converted by molar mass.

Assays:
P. aeruginosa ATCC 10145 = test: microbe, parasite or virus in culture; conditions: Pseudomonas aeruginosa, n = 2
In short: (§1)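 Every plate included two controls, one row of bacteria alone and one of medium only. Test agents and standard antibiotics underwent twofold dilution series in 96-well format, and cultures were diluted 40-fold into MH broth in the presence or absence of Tween before 2–3 h at 37°C.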

K. pneumoniae ATCC 13883 = test: microbe, parasite or virus in culture; conditions: Klebsiella pneumoniae, n = 2
In short: as §1

A. baumannii ATCC 19606 = test: microbe, parasite or virus in culture; conditions: Acinetobacter baumannii, n = 2
In short: as §1

E. coli = conditions: literature value; cited from earlier work
E. coli ATCC 25922 = test: microbe, parasite or virus in culture; conditions: n = 2
In short: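 Broth microdilution with 2-fold serial compound dilutions in MH broth, using cultures diluted 40-fold and grown at 37°C for 2 to 3 h, with or without Tween. Variants included 2% beractant added to mid-log cultures, or 50% human serum in MHB.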

**Q.** With `CC1(C)S[C@@H]2[C@H](NC(=O)Cc3ccccc3)C(=O)N2[C@H]1C(=O)O` [Penicillin G, penicillin G] as the molecule, how does the MIC (P. aeruginosa ATCC 10145; ATCC10145, Corning NBS, MHB +T80) read?
**A.** The MIC was > 64 µg/mL.

**Q.** What about the MIC (P. aeruginosa ATCC 10145; ATCC10145, Corning NBS, MHB -T80) of the same molecule?
**A.** Its MIC is > 64 µg/mL.

**Q.** And the MIC (P. aeruginosa ATCC 10145; ATCC10145, Corning PS, MHB +T80)?
**A.** Its MIC is > 64 µg/mL.

**Q.** What about the MIC (P. aeruginosa ATCC 10145; ATCC10145, Corning PS, MHB -T80) of the same molecule?
**A.** The MIC was > 64 µg/mL.

**Q.** What about the MIC (P. aeruginosa ATCC 10145; ATCC10145, Corning TC, MHB +T80) of the same molecule?
**A.** Its MIC is > 64 µg/mL.

**Q.** What about the MIC (P. aeruginosa ATCC 10145; ATCC10145, Corning TC, MHB -T80) of the same molecule?
**A.** The MIC was > 64 µg/mL.

**Q.** What about the MIC (K. pneumoniae ATCC 13883; ATCC13883, Corning NBS, MHB +T80) of the same molecule?
**A.** Its MIC is > 64 µg/mL.

**Q.** What about the MIC (K. pneumoniae ATCC 13883; ATCC13883, Corning NBS, MHB -T80) of the same molecule?
**A.** Its MIC is > 64 µg/mL.

**Q.** What about the MIC (K. pneumoniae ATCC 13883; ATCC13883, Corning PS, MHB +T80) of the same molecule?
**A.** Its MIC is > 64 µg/mL.

**Q.** What about the MIC (K. pneumoniae ATCC 13883; ATCC13883, Corning PS, MHB -T80) of the same molecule?
**A.** The MIC was > 64 µg/mL.

**Q.** And the MIC (K. pneumoniae ATCC 13883; ATCC13883, Corning TC, MHB +T80)?
**A.** The MIC was > 64 µg/mL.

**Q.** And the MIC (K. pneumoniae ATCC 13883; ATCC13883, Corning TC, MHB -T80)?
**A.** Its MIC is > 64 µg/mL.

**Q.** What about the MIC (A. baumannii ATCC 19606; ATCC19606, Corning NBS, MHB +T80) of the same molecule?
**A.** Its MIC is > 64 µg/mL.

**Q.** What about the MIC (A. baumannii ATCC 19606; ATCC19606, Corning NBS, MHB -T80) of the same molecule?
**A.** Its MIC is > 64 µg/mL.

**Q.** What about the MIC (A. baumannii ATCC 19606; ATCC19606, Corning PS, MHB +T80) of the same molecule?
**A.** The MIC was > 64 µg/mL.

**Q.** And the MIC (A. baumannii ATCC 19606; ATCC19606, Corning PS, MHB -T80)?
**A.** Its MIC is > 64 µg/mL.

**Q.** And the MIC (A. baumannii ATCC 19606; ATCC19606, Corning TC, MHB +T80)?
**A.** Its MIC is > 64 µg/mL.

**Q.** What about the MIC (A. baumannii ATCC 19606; ATCC19606, Corning TC, MHB -T80) of the same molecule?
**A.** Its MIC is > 64 µg/mL.

**Q.** And the “MIC (literature)” value (E. coli)?
**A.** Its value is 16–64 ([71]) µg/ml.

**Q.** What about the MIC (E. coli ATCC 25922; Corning PS plate, MHB −T80, no additive) of the same molecule?
**A.** The MIC was 32 to 64 µg/mL.

**Q.** What about the MIC (E. coli ATCC 25922; Escherichia coli, ATCC25922, 24 h, Corning NBS, MH + 2% LHB, 2% LS) of the same molecule?
**A.** Its MIC is 32 to 64 µg/mL.

**Q.** What about the MIC (E. coli ATCC 25922; Escherichia coli, ATCC25922, 24 h, Corning NBS, MH + 2% LHB, 50% HS) of the same molecule?
**A.** Its MIC is 32 to 64 µg/mL.

**Q.** What about the MIC (E. coli ATCC 25922; Escherichia coli, ATCC25922, 24 h, Corning NBS, MH + 2% LHB, no additive) of the same molecule?
**A.** The MIC was 32 to 64 µg/mL.

**Q.** And the MIC (E. coli ATCC 25922; Escherichia coli, ATCC25922, 24 h, Corning NBS, MH + T80, 2% LS)?
**A.** Its MIC is 32 µg/mL.

**Q.** What about the MIC (E. coli ATCC 25922; Escherichia coli, ATCC25922, 24 h, Corning NBS, MH + T80, 50% HS) of the same molecule?
**A.** The MIC was 32 to 64 µg/mL.

**Q.** And the MIC (E. coli ATCC 25922; Escherichia coli, ATCC25922, 24 h, Corning PS, MH + 2% LHB, 2% LS)?
**A.** Its MIC is 32 to 64 µg/mL.

**Q.** What about the MIC (E. coli ATCC 25922; Escherichia coli, ATCC25922, 24 h, Corning PS, MH + 2% LHB, no additive) of the same molecule?
**A.** The MIC was 64 µg/mL.

**Q.** And the MIC (E. coli ATCC 25922; Escherichia coli, ATCC25922, 24 h, Corning PS, MH + T80, 2% LS)?
**A.** The MIC was 32 to 64 µg/mL.

**Q.** And the MIC (E. coli ATCC 25922; Escherichia coli, ATCC25922, 24 h, Corning PS, MH + T80, 50% HS)?
**A.** The MIC was 64 µg/mL.

**Q.** What about the MIC (E. coli ATCC 25922; Escherichia coli, ATCC25922, 24 h, Corning TC, MH + 2% LHB, 2% LS) of the same molecule?
**A.** Its MIC is 32 to 64 µg/mL.

**Q.** What about the MIC (E. coli ATCC 25922; Escherichia coli, ATCC25922, 24 h, Corning TC, MH + 2% LHB, 50% HS) of the same molecule?
**A.** The MIC was 32 to 64 µg/mL.

**Q.** What about the MIC (E. coli ATCC 25922; Escherichia coli, ATCC25922, 24 h, Corning TC, MH + 2% LHB, no additive) of the same molecule?
**A.** The MIC was 64 µg/mL.

**Q.** What about the MIC (E. coli ATCC 25922; Escherichia coli, ATCC25922, 24 h, Corning TC, MH + T80, 2% LS) of the same molecule?
**A.** The MIC was 32 to 64 µg/mL.

**Q.** What about the MIC (E. coli ATCC 25922; Escherichia coli, ATCC25922, 24 h, Corning TC, MH + T80, 50% HS) of the same molecule?
**A.** Its MIC is 64 µg/mL.

**Q.** What about the MIC (E. coli ATCC 25922; Escherichia coli, ATCC25922, 24 h, Trek PS, MH + 2% LHB, 2% LS) of the same molecule?
**A.** Its MIC is 32 µg/mL.

**Q.** And the MIC (E. coli ATCC 25922; Escherichia coli, ATCC25922, 24 h, Trek PS, MH + 2% LHB, 50% HS)?
**A.** The MIC was 32 µg/mL.

**Q.** What about the MIC (E. coli ATCC 25922; Escherichia coli, ATCC25922, 24 h, Trek PS, MH + 2% LHB, no additive) of the same molecule?
**A.** The MIC was 32 µg/mL.

**Q.** And the MIC (E. coli ATCC 25922; Escherichia coli, ATCC25922, 24 h, Trek PS, MH + T80, 2% LS)?
**A.** Its MIC is 32 µg/mL.

**Q.** What about the MIC (E. coli ATCC 25922; Escherichia coli, ATCC25922, 24 h, Trek PS, MH + T80, 50% HS) of the same molecule?
**A.** The MIC was 32 µg/mL.

**Q.** And the MIC (E. coli ATCC 25922; Escherichia coli, ATCC25922, Corning NBS plate, MHB +0.002% T80, no further additive)?
**A.** The MIC was 64 µg/mL (≈ 191 µM).

**Q.** What about the MIC (E. coli ATCC 25922; Escherichia coli, ATCC25922, Corning NBS plate, MHB −T80, no additive) of the same molecule?
**A.** Its MIC is 64 µg/mL (≈ 191 µM).

**Q.** And the MIC (E. coli ATCC 25922; Escherichia coli, ATCC25922, Corning NBS, MH, 2% LS)?
**A.** Its MIC is 64 µg/mL (≈ 191 µM).

**Q.** And the MIC (E. coli ATCC 25922; Escherichia coli, ATCC25922, Corning NBS, MH, 50% HS)?
**A.** Its MIC is 64 µg/mL (≈ 191 µM).

**Q.** What about the MIC (E. coli ATCC 25922; Escherichia coli, ATCC25922, Corning PS plate, MHB +0.002% T80, no further additive) of the same molecule?
**A.** Its MIC is 64 µg/mL (≈ 191 µM).

**Q.** And the MIC (E. coli ATCC 25922; Escherichia coli, ATCC25922, Corning PS plate, MHB −T80, no additive)?
**A.** The MIC was 32 to 64 µg/mL (≈ 95.7 to 191 µM).

**Q.** What about the MIC (E. coli ATCC 25922; Escherichia coli, ATCC25922, Corning PS, MH, 50% HS) of the same molecule?
**A.** Its MIC is 64 µg/mL (≈ 191 µM).

**Q.** What about the MIC (E. coli ATCC 25922; Escherichia coli, ATCC25922, Corning TC plate, MHB +0.002% T80, no further additive) of the same molecule?
**A.** Its MIC is 64 µg/mL (≈ 191 µM).

**Q.** What about the MIC (E. coli ATCC 25922; Escherichia coli, ATCC25922, Corning TC plate, MHB −T80, no additive) of the same molecule?
**A.** Its MIC is 32 µg/mL (≈ 95.7 µM).

**Q.** And the MIC (E. coli ATCC 25922; Escherichia coli, ATCC25922, Corning TC, MH, 2% LS)?
**A.** Its MIC is 64 µg/mL (≈ 191 µM).

**Q.** What about the MIC (E. coli ATCC 25922; Escherichia coli, ATCC25922, Corning TC, MH, 50% HS) of the same molecule?
**A.** Its MIC is 64 µg/mL (≈ 191 µM).

**Q.** What about the MIC (E. coli ATCC 25922; Escherichia coli, ATCC25922, Nunc PS plate, MHB +0.002% T80) of the same molecule?
**A.** Its MIC is 64 µg/mL (≈ 191 µM).

**Q.** What about the MIC (E. coli ATCC 25922; Escherichia coli, ATCC25922, Nunc PS plate, MHB −T80) of the same molecule?
**A.** The MIC was 32 µg/mL (≈ 95.7 µM).

**Q.** And the MIC (E. coli ATCC 25922; Escherichia coli, ATCC25922, Nunc U TC plate, MHB +0.002% T80)?
**A.** Its MIC is 64 µg/mL (≈ 191 µM).

**Q.** What about the MIC (E. coli ATCC 25922; Escherichia coli, ATCC25922, Nunc U TC plate, MHB −T80) of the same molecule?
**A.** The MIC was 32 µg/mL (≈ 95.7 µM).

**Q.** What about the MIC (E. coli ATCC 25922; Escherichia coli, ATCC25922, Nunc flat TC plate, MHB +0.002% T80) of the same molecule?
**A.** The MIC was 64 µg/mL (≈ 191 µM).

**Q.** And the MIC (E. coli ATCC 25922; Escherichia coli, ATCC25922, Nunc flat TC plate, MHB −T80)?
**A.** The MIC was 32 to 64 µg/mL (≈ 95.7 to 191 µM).

**Q.** And the MIC (E. coli ATCC 25922; Escherichia coli, ATCC25922, Trek PS plate, MHB +0.002% T80, no further additive)?
**A.** The MIC was 32 to 64 µg/mL (≈ 95.7 to 191 µM).

**Q.** What about the MIC (E. coli ATCC 25922; Escherichia coli, ATCC25922, Trek PS plate, MHB −T80, no additive) of the same molecule?
**A.** The MIC was 64 µg/mL (≈ 191 µM).

**Q.** What about the MIC (E. coli ATCC 25922; Escherichia coli, ATCC25922, Trek PS, MH, 2% LS) of the same molecule?
**A.** The MIC was 64 µg/mL (≈ 191 µM).

**Q.** And the MIC (E. coli ATCC 25922; Trek PS plate, MHB +0.002% T80, no further additive)?
**A.** The MIC was 32 to 64 µg/mL.
